Values joined by “and” are separate entries in the source; they are usually repeats but may differ in a detail not shown here. Equal entries are not always repeated.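 Values below derive from 48-hour exposures of cells grown in 96-well plates, with endpoints linearly interpolated between the two concentrations bracketing the appropriate inhibition level. GI50 marks 50% less growth. TGI: total growth inhibition.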 A value given as a limit tells only on which side of the number the result lay.

Test systems include NCI-H226 lung; HCC-2998 colon; M14 melanoma; KM12 colon; NCI-H23 lung; U251 CNS; TK-10 renal; HT29 colon; OVCAR-5 ovarian; RPMI-8226 leukemia.
Holding throughout (assay): inhibition of tumour cell growth, NCI panel, 48 h

In the case of `C[C@@H]1C=C(CCCCCCCCCCC[C@H](O)[C@@H]2CCC(=O)O2)C(=O)O1`, the GI50 is 15.9 µM in the experiment on NCI-H226 lung; 2.26 µM in the experiment on HCC-2998 colon; 25.1 µM with M14 melanoma; 23.6 µM in the experiment with KM12 colon; 24.2 µM with NCI-H23 lung; 24.5 µM in the experiment with U251 CNS. The figures for the GI50 in the experiment with TK-10 renal and in the experiment on HT29 colon were 22.9 µM and 42.4 µM, respectively. For the same compound, the TGI amounted to 68.5 µM with NCI-H226 lung; 16.7 µM with HCC-2998 colon; 87.9 µM in the experiment with M14 melanoma; 65 µM in the experiment with KM12 colon; 99.1 µM in the experiment on NCI-H23 lung; 81.7 µM in the experiment on U251 CNS. For the same compound, the values for the TGI with TK-10 renal and with HT29 colon were 63.8 µM and greater than 100 µM, respectively.
With `[Cl][Bi]([O]c1ccccn1)[O]c1ccccn1`, the GI50 in the experiment with HCC-2998 colon, in the experiment on M14 melanoma, in the experiment on KM12 colon, with NCI-H23 lung, in the experiment with U251 CNS and with OVCAR-5 ovarian was greater than 100 µM in each case. In addition, the GI50 in the experiment with TK-10 renal is greater than 100 µM. Also, the TGI with HCC-2998 colon, with M14 melanoma, in the experiment on KM12 colon, in the experiment with NCI-H23 lung, in the experiment with U251 CNS and in the experiment with OVCAR-5 ovarian was greater than 100 µM in each case. Also, the TGI in the experiment with TK-10 renal was greater than 100 µM.
`CCN(Cc1cccc(OC)c1)c1ccc(CO)c(Cl)c1`: the GI50 with NCI-H226 lung is 0.0957 µM; in the experiment with HCC-2998 colon it was 12.5 µM; in the experiment on M14 melanoma, 16.2 µM; with RPMI-8226 leukemia, 6.44 µM; in the experiment on KM12 colon it was 17.1 µM; in the experiment with NCI-H23 lung, 13.6 µM. Also, the GI50 with U251 CNS is 0.88 µM; with OVCAR-5 ovarian, 0.157 µM; with HT29 colon, 2.13 µM. Moreover, the TGI in the experiment with NCI-H226 lung was 0.231 µM; in the experiment with HCC-2998 colon it was 33.8 µM; in the experiment with M14 melanoma it was 41 µM; with RPMI-8226 leukemia, 47.9 µM; with KM12 colon, 40.5 µM; in the experiment on NCI-H23 lung it was 51 µM. In addition, the figures for the TGI in the experiment on U251 CNS, in the experiment on OVCAR-5 ovarian and with HT29 colon were 19.9 µM, 0.606 µM and 17.3 µM, respectively.
In the case of `CCCN(CCCCC(NC(C)=O)C(=O)NCc1ccccc1)C(=O)NCCCl` (stereo unspecified), the TGI in the experiment with NCI-H226 lung, in the experiment with HCC-2998 colon, with M14 melanoma, in the experiment on RPMI-8226 leukemia, with KM12 colon and with NCI-H23 lung was greater than 100 µM in each case. For the same compound, the TGI with U251 CNS, in the experiment on TK-10 renal and in the experiment with HT29 colon was greater than 100 µM in each case.
Regarding `Cc1ccc(C(CN(C)C)C(=O)c2ccccc2)cc1` (stereo unspecified), the GI50 in the experiment with NCI-H226 lung was 2.97 µM; in the experiment on HCC-2998 colon it was 6.62 µM; in the experiment on M14 melanoma it was 1.91 µM; with RPMI-8226 leukemia, 1.12 µM; with KM12 colon, 4 µM; with NCI-H23 lung, 10.5 µM. Besides, the GI50 in the experiment with U251 CNS was 3.4 µM; with OVCAR-5 ovarian, 4.23 µM; in the experiment with HT29 colon, 3.26 µM. Also, the TGI in the experiment on NCI-H226 lung was found to be 20.9 µM; with HCC-2998 colon it was 20.2 µM; in the experiment with M14 melanoma it was 4.35 µM; with RPMI-8226 leukemia, 4.28 µM; in the experiment with KM12 colon it was 14.7 µM; in the experiment with NCI-H23 lung, 26.7 µM. For the same compound, the TGI in the experiment on U251 CNS was 12.8 µM; in the experiment with OVCAR-5 ovarian it was 15.8 µM; with HT29 colon, 12.5 µM.
In the case of `C1CC[N-]CC1.C1CC[N-]CC1.C1CC[N-]CC1.C1CC[N-]CC1.[Cl][Rh][Cl]`, the GI50 was 4.47 µM with NCI-H226 lung; 8.17 µM with HCC-2998 colon; 6.26 µM with M14 melanoma; 3.2 µM in the experiment on RPMI-8226 leukemia; 7.04 µM with KM12 colon; 4.72 µM in the experiment on U251 CNS. Further, the values for the GI50 with OVCAR-5 ovarian, in the experiment with TK-10 renal and in the experiment on HT29 colon were 6.83 µM, 23.6 µM and 7.6 µM, respectively. Also, the TGI in the experiment with NCI-H226 lung was greater than 100 µM; in the experiment on HCC-2998 colon it was 30.3 µM; in the experiment on M14 melanoma, greater than 100 µM; with RPMI-8226 leukemia, 13.6 µM; with KM12 colon, 21.8 µM; in the experiment on U251 CNS, 23.8 µM. The values for the TGI in the experiment on OVCAR-5 ovarian, with TK-10 renal and in the experiment with HT29 colon were 49.8 µM, greater than 100 µM and 45.8 µM, respectively.
As for `Cc1c(/C=N/NS(=O)(=O)c2ccccc2)no[n+]1[O-]`, the TGI in the experiment on M14 melanoma, in the experiment on RPMI-8226 leukemia, with KM12 colon, in the experiment with NCI-H23 lung, with U251 CNS and in the experiment with OVCAR-5 ovarian was greater than 100 µM throughout. The TGI with TK-10 renal and with HT29 colon was greater than 100 µM throughout.
Consider `COCCn1cc(-c2csc(-c3c[nH]c4ccccc34)n2)c2cccnc21`, for which the GI50 is 4.08 µM with HCC-2998 colon; 3.22 µM in the experiment with M14 melanoma; 0.762 µM with KM12 colon; 4.58 µM in the experiment with NCI-H23 lung; 6.12 µM in the experiment on U251 CNS; 28.2 µM in the experiment on OVCAR-5 ovarian. Besides, in the experiment with HT29 colon, the GI50 was 3.19 µM. Further, the TGI in the experiment with HCC-2998 colon, with M14 melanoma, in the experiment with KM12 colon, with NCI-H23 lung, in the experiment on U251 CNS and in the experiment with OVCAR-5 ovarian was greater than 100 µM each time. Moreover, in the experiment with HT29 colon, the TGI was greater than 100 µM.
Consider `O=C(O)C(=Cc1ccnc2ccccc12)C(=O)O`, for which the TGI in the experiment with NCI-H226 lung, in the experiment with M14 melanoma, with RPMI-8226 leukemia, in the experiment on KM12 colon, in the experiment on NCI-H23 lung and in the experiment on U251 CNS was greater than 100 µM throughout. Also, the TGI in the experiment on OVCAR-5 ovarian, in the experiment with TK-10 renal and in the experiment on HT29 colon was greater than 100 µM each time.
On to `O=C1c2cccc3cc([N+](=O)[O-])cc(c23)C(=O)N1CCNCCNCCNCCN1C(=O)c2cccc3cc([N+](=O)[O-])cc(c23)C1=O`, for which the TGI is 0.309 µM and 0.315 µM in the experiment with NCI-H226 lung; 0.226 µM in the experiment with HCC-2998 colon; 0.161 µM in the experiment with M14 melanoma; 0.668 µM and 4.47 µM in the experiment on KM12 colon; 0.0206 µM in the experiment on U251 CNS; 0.326 µM in the experiment with OVCAR-5 ovarian. Besides, the TGI with TK-10 renal turned out to be 0.321 µM.

For the origin of these results see PubChem BioAssay (NCI).
